The subject of data set [1] is T-lymphoblastic leukaemia cell line CEM. Nature of the data set: Calcein AM cytotoxicity assay, CEM. The class given is cell-based. To be noted: read-out: IC50 assessed by Calcein AM assay of surviving cells.
Data set [2] deals with multiple myeloma cell line RPMI 8226. Nature of the data set: Calcein AM cytotoxicity assay, RPMI 8226. The class given is cell-based. To be noted: exposure 72 h (b71 says 96 h), mean ± SD.
The subject of data set [3] is malignant human melanoma cell line G361. Nature of the data set: Calcein AM cytotoxicity assay, G 361. The class given is cell-based.
The subject of data set [4] is normal human fibroblasts (BJ). The data set is described as follows: Calcein AM cytotoxicity assay, BJ. The format is cell-based. Conditions: read-out: IC50 assessed by Calcein AM assay of surviving cells.
Data set [5] deals with normal and cancer cell lines of different histopathological origin. The data set is described as follows: Calcein AM cytotoxicity assay, summary statements over the cell line panel. The class given is cell-based. Conditions: for cytotoxic / growth inhibitory activity in words: tested in amounts up to 50 μmol/L per assay. On the procedure:
Stock solutions ([…]) were prepared by dissolving relevant quantity of substance in DMSO cultivation media (DMEM, RPMI 1640, F-12 medium), fetal bovine serum (FBS), L-glutamine, penicillin, and streptomycin were purchased from Sigma (MO, USA). 3-(4,5-Dimethylthiazol-2-yl)-2,5-diphenyltetrazolium bromide (MTT) was from Serva Electrophoresis (Heidelberg, Germany). Monoclonal mouse anti-bromodeoxyuridine (BrdU) intibody was obtained from DakoCytomation (Glostrup, Denmark). Calcein AM was obtained from PAA Laboratories GmbH (Pasching, Austria). The screening cell lines (T-lymphoblastic leukaemia cell line CEM; breast carcinoma cell line MCF-7 (estrogen-sensitive), breast adenocarcinoma cell line MDA-MB 468 (cell lines LNCaP (androgen-sensitive), prostate carcinoma cell line DU-145 ([…]), lung carcinoma cell line A-549, chronic myelogenous leukemia cell line K562, multiple myeloma cell line RPMI 8226, cervical carcinoma cell line HeLa, malignant human melanoma cell line G361, osteosarcoma cell line HOS, and normal human fibroblasts (BJ) were obtained from the American Type Culture Collection (Manassas, Va., USA). MCF-7 cells were cultured in F-12 medium (Sigma, MO, USA). LNCaP cells were cultured in RPMI 1640 medium (GIBCO, USA). All other cells were cultured in DMEM medium (Sigma, MO, USA). All used media were supplemented with 10% heat-inactivated fetal bovine serum, 2 mmol/L L-glutamine, 1% penicillin/streptomycin. The cell lines were maintained under standard cell culture conditions at 37° C. and 5% CO2 in a humid environment. Cells were subcultured twice or three times a week using the standard trypsinization procedure (Sigma, USA).
The cell suspension of approximate density of 1.25×10^5 cells/mL was redistributed into 96-well microtitre plates and after 12 h of stabilization the tested Brassinosteroids (BRs) were added in different concentrations. BRs were dissolved in DMSO. Control cultures were treated with DMSO alone. The final concentration of DMSO in the reaction mixture never exceeded 1%. Tested compounds in given concentrations were added at time zero in 20 μL aliquots to the microtiter plate wells. Usually, each test compound was evaluated at six 4-fold dilutions. In routine testing, the highest well concentration was 50 μmol, but it can be the matter of change dependent on the agent. Cultivation proceeds 96 h at 37° C., the cells were incubated with Calcein AM solution (Molecular Probes) for 1 h. Fluorescence (OD) of viable cells was quantified with Fluoroscan Ascent (Microsystems). The cell survival (IC50) was calculated using the following equation: IC50=(ODdrug exposed well/mean ODcontrol wells)×100%. Each compound was tested in triplicates and the test was repeated at least 3 times. The IC50 value, corresponding to drug concentration lethal to 50% of the tumor cells, was calculated from the obtained dose response curves.
We investigated effects of brassinosteroid on viability of normal and cancer cell lines of different histopathological origin. To evaluate the cytotoxic properties of several BRs and some related steroids, we used T-lymphoblastic leukaemia cell line CEM, breast carcinoma cell line MCF-7, lung carcinoma cell line A-549, chronic myeloid leukaemia cell line K562, multiple myeloma cell line RPMI 8226, cervical carcinoma cell line HeLa, malignant melanoma cell line G361, osteosarcoma cell line HOS, and normal human fibroblasts BJ. The cells were exposed to six 4-fold dilutions of each drug for 72 h to determinate number of surviving cells.

Data set [6] relates to herpes simplex virus type 1 (HSV-1). To be noted: cited from earlier work.
For a further data set, the system named is arena viruses. To be noted: cited from earlier work.
In another data set the test system is measles virus (MV). Conditions: cited from earlier work.
The mark [7] stands for this setting: CEM, six 4-fold dilutions, exposure 72 h (b71 says 96 h), mean ± SD.
Setting [8] is: RPMI 8226, read-out: IC50 assessed by Calcein AM assay of surviving cells.
Setting [9] is: G 361, exposure 72 h (b71 says 96 h), mean ± SD, read-out: IC50 assessed by Calcein AM assay of surviving cells.
Setting [10] is: BJ normal fibroblasts, exposure 72 h (b71 says 96 h), mean ± SD.
[11] abbreviates: Homo sapiens, RPMI-8226, RPMI 8226, read-out: IC50 assessed by Calcein AM assay of surviving cells.
Setting [12] is: Homo sapiens, G 361, exposure 72 h (b71 says 96 h), mean ± SD, read-out: IC50 assessed by Calcein AM assay of surviving cells.
[13] abbreviates: Homo sapiens, Fibroblast, BJ normal fibroblasts, exposure 72 h (b71 says 96 h), mean ± SD.
Setting [14] is: Homo sapiens, RPMI-8226, read-out: IC50 assessed by Calcein AM assay of surviving cells, RPMI 8226.
The mark [15] stands for this setting: Homo sapiens, G-361, read-out: IC50 assessed by Calcein AM assay of surviving cells.

The values below come from patent US20100204460A1, “NATURAL BRASSINOSTEROIDS FOR USE FOR TREATING HYPERPROLIFERATION, TREATING PROLIFERATIVE DISEASES AND REDUCING ADVERSE EFFECTS OF STEROID DYSFUNCTION IN MAMMALS, PHARMACEUTICAL COMPOSITION AND ITS USE” (priority 2007, published 2010).

The structures appear in SMILES notation. Entries after “also recorded” stand apart in the source; their conditions may differ. Where two headings read alike, the source gives them in different places.

For `CC(C)[C@@H](C)[C@H](O)[C@@H](O)[C@@H](C)[C@H]1CC[C@H]2[C@@H]3CC(=O)[C@H]4C[C@H](O)[C@H](O)C[C@]4(C)[C@H]3CC[C@]12C` [22S,23S-24-Epicastasterone], the 50% inhibitory concentration (IC50) was 49 ± 1.8 µM in data set [1] (setting [7]), more than 50 µM in data set [2] (setting [8]), more than 50 µM in data set [3] (setting [9]) and more than 50 µM in data set [4] (setting [10]).
Turning to `CC(C)(O)CC[C@@H](O)[C@](C)(O)[C@H]1CC[C@@]2(O)C3=CC(=O)[C@@H]4C[C@@H](O)[C@@H](O)C[C@]4(C)[C@H]3CC[C@]12C` [β-ecdyson], the IC50 in data set [1] (setting [7]), in data set [2] (setting [8]), in data set [3] (setting [9]) and in data set [4] (setting [10]) was more than 50 µM in each case. The “cytotoxic / growth inhibitory activity in words” value in data set [5] (listed as β-ecdysone) is recorded as “Almost zero activity; also recorded: zero growth inhibitory activity”.
Regarding `CC(C)[C@H](C)[C@@H](O)[C@H](O)[C@@H](C)[C@H]1CC[C@H]2[C@@H]3CC(=O)[C@H]4C[C@H](O)[C@H](O)C[C@]4(C)[C@H]3CC[C@]12C` [Brassinosteroid 8, Castasterone], the “cytotoxic / growth inhibitory activity in words” value in data set [5] is “high cytotoxicity”.
On to `CC(C)[C@H](C)[C@@H](O)[C@H](O)[C@@H](C)[C@H]1CCC2C3CC(=O)C4C[C@H](O)[C@@H](O)C[C@]4(C)C3CC[C@@]21C` (some centres unmarked) [Brassinosteroid 16], for which the IC50 in data set [1] (setting [7]), in data set [2] (setting [8]), in data set [3] (setting [9]) and in data set [4] (setting [10]) was more than 50 µM each time.
Regarding `CC[C@H](CC[C@@H](C)[C@H]1CC[C@H]2[C@@H]3CC=C4C[C@@H](O)CC[C@]4(C)[C@H]3CC[C@]12C)C(C)C` [Sitosterol], the IC50 in data set [1] (setting [7]) is more than 50 µM; in data set [2] (setting [8]), 32 ± 1.6 µM; in data set [3] (setting [9]), more than 50 µM; in data set [4] (setting [10]), more than 50 µM. Also, in data set [5], the “cytotoxic / growth inhibitory activity in words” value is reported as “Almost zero activity”.
Regarding `CC[C@@H](C(C)C)[C@@H](O)[C@H](O)[C@@H](C)[C@H]1CCC2C3COC(=O)C4C[C@H](O)[C@H](O)C[C@]4(C)C3CC[C@@]21C` (some centres unmarked) [Brassinosteroid 2], the IC50 was 48 ± 1.3 µM in data set [1] (setting [7]), more than 50 µM in data set [2] (setting [11]), more than 50 µM in data set [3] (setting [12]) and more than 50 µM in data set [4] (setting [13]).
On to `CC(C)[C@H](C)[C@@H](O)[C@H](O)[C@@H](C)[C@H]1CCC2C3CC(=O)C4C[C@H](O)[C@H](O)C[C@]4(C)C3CC[C@@]21C` (some centres unmarked) [Brassinosteroid 8], for which the IC50 in data set [1] (setting [7]) was 16 ± 5.3 µM; in data set [2] (setting [11]) it was 33 ± 1.3 µM; in data set [3] (setting [12]) it was more than 50 µM; in data set [4] (setting [13]), more than 50 µM.
With `CC(C)[C@@H](C)/C=C/[C@@H](C)[C@H]1CC[C@H]2[C@@H]3CC=C4C[C@@H](O)CC[C@]4(C)[C@H]3CC[C@]12C` [Brassicasterol], the IC50 in data set [1] (setting [7]), in data set [2] (setting [8]), in data set [3] (setting [9]) and in data set [4] (setting [10]) was more than 50 µM in each case. Besides, the “cytotoxic / growth inhibitory activity in words” value in data set [5] was “Almost zero activity”.
In the case of `CC[C@@H](C(C)C)[C@H](O)[C@@H](O)[C@@H](C)[C@H]1CC[C@H]2[C@@H]3CC(=O)[C@H]4C[C@H](O)[C@H](O)C[C@]4(C)[C@H]3CC[C@]12C` [22S,23S-28-Homocastasterone], the IC50 was 24 ± 1.5 µM in data set [1] (setting [7]), 25 µM in data set [2] (setting [8]), 45 ± 2.2 µM in data set [3] (setting [9]) and more than 50 µM in data set [4] (setting [10]).
In the case of `CC[C@@H](C(C)C)[C@@H](O)[C@H](O)[C@@H](C)[C@H]1CC[C@H]2[C@@H]3COC(=O)[C@H]4C[C@H](O)[C@H](O)C[C@]4(C)[C@H]3CC[C@]12C` [Brassinosteroid 2, 28-Homobrassinolide], the “in vitro antiviral activity” value (in data set [6]; with arena viruses; in the data set with measles virus (MV)) was “in vitro antiviral activity” in each case.
With `CC(C)[C@@H](C)[C@H](O)[C@@H](O)[C@@H](C)[C@H]1CC[C@H]2[C@@H]3COC(=O)[C@H]4C[C@H](O)[C@H](O)C[C@]4(C)[C@H]3CC[C@]12C` [22S,23S-24-Epibrassinolide], the IC50 in data set [1] (setting [7]), in data set [2] (setting [8]), in data set [3] (setting [9]) and in data set [4] (setting [10]) was more than 50 µM throughout.
As for `CC(C)[C@H](C)[C@@H](O)[C@H](O)[C@@H](C)[C@H]1CCC2C3COC(=O)C4C[C@H](O)[C@H](O)C[C@]4(C)C3CC[C@@]21C` (some centres unmarked) [Brassinosteroid 1], the IC50 in data set [1] was more than 50 µM; in data set [2] (setting [14]), more than 50 µM; in data set [3] (setting [15]) it was more than 50 µM; in data set [4] (Homo sapiens, Fibroblast), more than 50 µM.
`CC(C)CCC[C@@H](C)[C@H]1CC[C@H]2[C@@H]3CC=C4C[C@@H](O)CC[C@]4(C)[C@H]3CC[C@]12C` [Cholesterol]: the IC50 in data set [1] (setting [7]) was more than 50 µM; in data set [2] (setting [11]), more than 30 µM; in data set [2] (setting [8]) it was 38 ± 2.9 µM; in data set [3] (setting [12]), more than 50 µM; in data set [4] (setting [13]), more than 50 µM.
Turning to `CC(C)CCC[C@@H](C)[C@H]1CC[C@H]2[C@@H]3CC[C@H]4CCCC[C@]4(C)[C@H]3CC[C@]12C` [5α-cholestane], the concentration for half-maximal inhibition (IC50) in data set [1] (setting [7]), in data set [2] (setting [11]), in data set [3] (setting [12]) and in data set [4] (setting [13]) was more than 50 µM each time. Besides, the “cytotoxic / growth inhibitory activity in words” value in data set [5] is “Almost zero activity”.
Consider `CC[C@@H](C(C)C)[C@H](O)[C@@H](O)[C@@H](C)[C@H]1CC[C@H]2[C@@H]3COC(=O)[C@H]4C[C@H](O)[C@H](O)C[C@]4(C)[C@H]3CC[C@]12C` [22S,23S-28-Homobrassinolide], for which the IC50 in data set [1] (setting [7]) was 35 ± 2.2 µM; in data set [2] (setting [8]), 31 ± 7.3 µM; in data set [3] (setting [9]), more than 50 µM; in data set [4] (setting [10]), more than 50 µM; in data set [5] (range over RPMI 8226 and CEM values of Table 1) it was 31 to 35 µM.
Take `CC[C@H](/C=C/[C@@H](C)[C@H]1CC[C@H]2[C@@H]3CC=C4C[C@@H](O)CC[C@]4(C)[C@H]3CC[C@]12C)C(C)C` [Stigmasterol]: the IC50 in data set [1] is more than 50 µM; in data set [2] (setting [14]), more than 30 µM; in data set [2] (read-out: IC50 assessed by Calcein AM assay of surviving cells, RPMI 8226), 32 ± 0.6 µM; in data set [3] (setting [15]), more than 50 µM; in data set [4] (Homo sapiens, Fibroblast) it was more than 50 µM. The “cytotoxic / growth inhibitory activity in words” value in data set [5] was “Almost zero activity”.

What is called IC50 is the concentration needed to halve the response being measured.
